Results as given in patent US7414031B2, “5-nitro-nucleoside compounds for treating viral infections” (priority 2004, dated 2008).

Tests used:
[1] = system: HCV replicon I389luc-ubi-neo/NS3-3′/ET in ET (Huh-lucubineo-ET) cell line; assay: Replicon Assay; assay type: cell-based; conditions: Hepatitis C virus, read-out: Replicon Assay
Procedure: A cell line, ET (Huh-lucubineo-ET) is used for screening of compounds of the present invention for HCV RNA dependent RNA polymerase. The ET cell line is stably transfected with RNA transcripts harboring a I389luc-ubi-neo/NS3-3′/ET; replicon with firefly luciferase-ubiquitin-neomycin phosphotransferase fusion protein and EMCV-IRES driven NS3-5B polyprotein containing the cell culture adaptive mutations (E1202G; T1280I; K1846T) (Krieger at al, 2001 and unpublished). The ET cells are grown in DMEM, supplemented with 10% fetal calf serum, 2 mM Glutamine, Penicillin (100 IU/mL)/Streptomycin (100 μg/mL), 1× nonessential amino acids, and 250 μg/mL G418 (“Geneticin”). They are all available through Life Technologies (Bethesda, Md.). The cells are plated at 0.5-1.0×10^4 cells/well in the 96 well plates and incubated for 24 hrs before adding nucleoside analogs. […] Luciferase activity will be measured 48-72 hours later by adding a lysis buffer and the substrate (Catalog number Glo-lysis buffer E2661 and Bright-Glo leuciferase system E2620 Promega, Madison, Wis.). […] Under the same condition, cytotoxicity of the compounds will be determined using cell proliferation reagent, WST-1 (Roche, Germany). […] IC50 and TC50 values were calculated by fitting % inhibition at each concentration to the following equation: % inhibition=100%/[(IC50/[I])^b+1] where b is Hill's coefficient.

[2] = molecular target: T1, recombinant HCV-NS5b (Hepatitis C virus genotype 1b, UniProt Q9WMX2); assay: HCV-NS5b Enzyme Assay; assay type: biochemical
T1 construct: (His)6 (C); made in house; host or cells: XL-1 cells (E. coli)
Excerpt: The coding sequence of NS5b protein is cloned by PCR from pFKI389luc/NS3-3′/ET as described by Lohmann, V., et al. (1999) Science 285, 110-113 using the following primers: […] (SEQ. ID. NO. 1) […] (SEQ. ID. NO. 2)
The cloned fragment is missing the C terminus 21 amino acid residues. The cloned fragment is inserted into an IPTG-inducible expression plasmid that provides an epitope tag (His)6 at the carboxy terminus of the protein.
The recombinant enzyme is expressed in XL-1 cells and after induction of expression, the protein is purified using affinity chromatography on a nickel-NTA column. Storage condition is 10 mM Tris-HCl pH 7.5, 50 mM NaCl, 0.1 mM EDTA, 1 mM DTT, 20% glycerol at −20° C.
The polymerase activity is assayed by measuring incorporation of radiolabeled UTP into a RNA product using a biotinylated, heteropolymeric template, which includes a portion of the HCV genome. Typically, the assay mixture (50 μL) contains 10 mM Tris-HCl (pH 7.5), 5 mM MgCl2, 0.2 mM EDTA, 10 mM KCl, 1 unit/μL RNAsin, 1 mM DTT, 10 μM each of NTP, including [^3H]-UTP, and 10 ng/μL heteropolymeric template. Test compounds are initially dissolved in 100% DMSO and further diluted in aqueous buffer containing 5% DMSO. Typically, compounds are tested at concentrations between 1 nM and 100 μM. […] Incorporation of radioactivity is determined by scintillation counting.

[3] = patients treated at currently recommended doses; cited from earlier work
[4] = system: HCV; conditions: treatment of HCV with interferon; cited from earlier work

For `C[C@@]1(O)[C@H](O)[C@@H](CO)O[C@H]1n1cc(C(=O)O)c2c(N)ncnc21` [Comparative Example A, 7-(2′-methyl-β-D-ribofuranosyl)-4-amino-5-carboxy-pyrrolo[2,3-d]pyrimidine, reference compound], the IC50 [1] was > 50000 nM.
With `C[C@@]1(O)[C@H](O)[C@@H](CO)O[C@H]1n1cc([N+](=O)[O-])c2c(N)ncnc21` [Compound 101, 7-(2′-C-methyl-β-D-ribofuranosyl)-4-amino-5-nitro-pyrrolo[2,3-d]pyrimidine] the IC50 [1] was 60 nM.
`C[C@@]1(O)[C@H](O)[C@@H](COP(=O)(O)OP(=O)(O)OP(=O)(O)O)O[C@H]1n1cc([N+](=O)[O-])c2c(N)ncnc21` [Compound 104, 7-(2′-C-methyl-5′-triphospho-β-D-ribofuranosyl)-4-amino-5-nitro-pyrrolo[2,3-d]pyrimidine] gave an IC50 [2] of 2600 nM.
In the case of `NC(=O)c1ncn([C@@H]2O[C@H](CO)[C@@H](O)[C@H]2O)n1` [Ribavirin, 1-β-D-ribofuranosyl-1H-1,2,-4-triazole-3-carboxamide], the “patients with significant hemolysis” value [3] is given as 10-20%.
In the case of interferon, the “response rate (long term efficacy)” value [4] is given as “about 25%”.
